We go through 33 substances from US10556936B2, “Immunogenic proteins and fragments thereof from allergenic mites” (ALK-ABELLÓ A/S, priority 2016, dated 2020).

The subject of this experiment is HDM-specific T cells expanded from PBMCs of HDM-allergic individuals. As to the kind of experiment: T cell reactivity of peptides: IFN/IL-5 ELISPOT on in vitro expanded HDM-specific T cells. The conditions noted are these: for SFC/donor: individual peptides 10 μg/mL; for % responder: percentage of donors that produced a response against the peptide, 10 μg/mL. The experiment is classed as cell-based, human.

As for “GYAFIMESSSAEHEI (Immunogenic fragment) [Peptide 184, fragment of A0023 Der f]”, the SFC/donor came out at 16 SFC/donor and the “% responder” value is reported as 10%.
As to “110 (ILSDWSSMRWTIPSI; Immunogenic fragment) [compound 110]”, the SFC/donor was 36 SFC/donor and the “% responder” value was found to be 30%.
In the case of “80 (NLSSKVLPNLNVPYC; Immunogenic fragment) [compound 80]”, the SFC/donor worked out at 4 SFC/donor and the “% responder” value is listed as 5%.
On the same counts, the results for “90 (TKLASGVFLFNSNAM; Immunogenic fragment) [compound 90]” are 11 SFC/donor and 5%.
In the same order, the values of “64 (LYNPLGHRLINHTVR; Immunogenic fragment) [compound 64]” are 6 SFC/donor and 5%.
On the same counts, the results for “106 (AALTKLNKRPFIISR; Immunogenic fragment) [compound 106]” are 14 SFC/donor and 10%.
Consider “84 (IHQLNDQVLRLKFID; Immunogenic fragment) [compound 84]”, for which the SFC/donor came out at 3 SFC/donor and the “% responder” value amounted to 5%.
Consider “117 (IRAARSSLQYRYRFL; Immunogenic fragment) [compound 117]”, for which the SFC/donor was determined as 20 SFC/donor and the “% responder” value was 20%.
On the same counts, the results for “69 (EPIISFTSIESNKQA; Immunogenic fragment) [compound 69]” are 112 SFC/donor and 5%.
In the same order, the values of “149 (SSSQYQMAWAFGNNV; Immunogenic fragment) [compound 149]” are 12 SFC/donor and 10%.
On the same counts, the results for “89 (RAPFRKNTNWKRYTQ; Immunogenic fragment) [compound 89]” are 9 SFC/donor and 5%.
In the case of “86 (RLYSVELDGSHLIVR; Immunogenic fragment) [compound 86]”, the SFC/donor was 3 SFC/donor and the “% responder” value came out at 5%.
On to “105 (SLSMAMATNAALTKL; Immunogenic fragment) [compound 105]”, for which the SFC/donor is reported as 9 SFC/donor and the “% responder” value is on record as 5%.
On the same counts, the results for “53 (FEAKGFKLVAMKFMM; Immunogenic fragment) [compound 53]” are 7 SFC/donor and 5%.
On the same counts, the results for “102 (QLHYNLHNLYGFQEA; Immunogenic fragment) [compound 102]” are 14 SFC/donor and 10%.
Consider “122 (FMWGDSMLIAPILYP; Immunogenic fragment) [compound 122]”, for which the SFC/donor came out at 2 SFC/donor and the “% responder” value was determined as 5%.
On the same counts, the results for “98 (WMDMFAEYHKTIAFD; Immunogenic fragment) [compound 98]” are 8 SFC/donor and 5%.
“150 (ELNSRFVYAKLRGAF; Immunogenic fragment) [compound 150]”: the SFC/donor worked out at 21 SFC/donor and the “% responder” value came out at 5%.
In the same order, the values of “60 (HVAFNYAKMLDSAML; Immunogenic fragment) [compound 60]” are 75 SFC/donor and 5%.
In the same order, the values of “68 (DGHGIVIRGRHLLLL; Immunogenic fragment) [compound 68]” are 24 SFC/donor and 5%.
In the same order, the values of “50 (FIMLKPDAVQRGIVG; Immunogenic fragment) [compound 50]” are 7 SFC/donor and 5%.
As for “72 (KRYLLRLEHFYQSNE; Immunogenic fragment) [compound 72]”, the SFC/donor worked out at 4 SFC/donor and the “% responder” value was determined as 5%.
With “47 (ELLKKKGIIPGIKVD; Immunogenic fragment) [compound 47]”, the SFC/donor amounted to 12 SFC/donor and the “% responder” value was 5%.
In the same order, the values of “148 (TWWFDEAPMLSSSQY; Immunogenic fragment) [compound 148]” are 21 SFC/donor and 10%.
In the same order, the values of “91 (GVFLFNSNAMDILTQ; Immunogenic fragment) [compound 91]” are 9 SFC/donor and 5%.
On to “94 (FTNLNTTYTRNRAVG; Immunogenic fragment) [compound 94]”, for which the SFC/donor is on record as 94 SFC/donor and the “% responder” value is listed as 15%.
In the same order, the values of “54 (FKLVAMKFMMASEDL; Immunogenic fragment) [compound 54]” are 6 SFC/donor and 5%.
In the same order, the values of “118 (SSLQYRYRFLAHLYT; Immunogenic fragment) [compound 118]” are 37 SFC/donor and 20%.
As to “104 (LHNLYSLSMAMATNA; Immunogenic fragment) [compound 104]”, the SFC/donor amounted to 29 SFC/donor and the “% responder” value amounted to 10%.
On the same counts, the results for “135 (IIQTKLSIFNDNDKS; Immunogenic fragment) [compound 135]” are 3 SFC/donor and 5%.
On to “85 (DQVLRLKFIDANQKR; Immunogenic fragment) [compound 85]”, for which the SFC/donor worked out at 222 SFC/donor and the “% responder” value is recorded as 20%.
On the same counts, the results for “124 (DINYVFFRSGSIIPI; Immunogenic fragment) [compound 124]” are 20 SFC/donor and 10%.
Turning to “51 (RGIVGEIIRRFEAKG; Immunogenic fragment) [compound 51]”, the SFC/donor came to 5 SFC/donor and the “% responder” value is reported as 5%.
